In data set [1] the target is T1, Butyrophilin subfamily 3 member A1 (Homo sapiens, UniProt O00481). Put plainly: Activation of butyrophilin 3A1 in human K562 cells assessed as interferon-gamma production pretreated for 15 mins followed by HMBPP-treated Vgamma9Vdelta2 T cells addition and measured after 20 hrs by ELISA. It counts as cell-based.
The target in data set [2] is T1, Butyrophilin subfamily 3 member A1. Put plainly: Activation of butyrophilin 3A1 in human K562 cells assessed as interferon-gamma production pretreated for 60 mins followed by HMBPP-treated Vgamma9Vdelta2 T cells addition and measured after 20 hrs by ELISA. In kind it is cell-based. For orientation: In an ELISA, binding on a coated surface is turned into a signal by an enzyme label.

The target is the same in data set [3]. Nature of the data set: Activation of butyrophilin 3A1 in human K562 cells assessed as interferon-gamma production pretreated for 240 mins followed by HMBPP-treated Vgamma9Vdelta2 T cells addition and measured after 20 hrs by ELISA. In kind it is cell-based.
In data set [4] the test system is PBMC. Nature of the data set: Activation of cell proliferation in human PBMC incubated for 72 hrs by Cell Quanti Blue reagent based assay. It counts as functional.
The nature of data set [5]: Stability in 50% human plasma at 100 uM measured for 24 hrs by LCMS analysis. In kind it is ADME, cell-free.

T1 sequence (O00481 whole entry): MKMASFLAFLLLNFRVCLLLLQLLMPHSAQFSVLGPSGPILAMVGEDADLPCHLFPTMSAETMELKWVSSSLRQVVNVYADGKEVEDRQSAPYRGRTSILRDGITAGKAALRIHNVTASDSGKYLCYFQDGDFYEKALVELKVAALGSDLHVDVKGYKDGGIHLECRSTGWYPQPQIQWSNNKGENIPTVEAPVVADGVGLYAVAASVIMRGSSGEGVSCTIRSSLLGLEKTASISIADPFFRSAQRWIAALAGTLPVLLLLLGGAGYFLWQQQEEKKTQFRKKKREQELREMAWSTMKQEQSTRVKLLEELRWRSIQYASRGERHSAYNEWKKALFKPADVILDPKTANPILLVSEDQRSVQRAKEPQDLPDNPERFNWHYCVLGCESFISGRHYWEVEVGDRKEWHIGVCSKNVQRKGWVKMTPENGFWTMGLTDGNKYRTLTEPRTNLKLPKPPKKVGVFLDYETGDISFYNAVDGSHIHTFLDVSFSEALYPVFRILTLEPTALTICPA

As usually defined, the EC50 is the concentration at which the effect is half-maximal. In the case of `CCOC(=O)CNP(=O)(CC/C=C(\C)CO)Oc1ccccc1` (racemic), the EC50 in data set [1] was 1500 nM; in data set [2], 230 nM; in data set [3] it was 51 nM.
On to `O=P(O)(O)C(O)(Cn1ccnc1)P(=O)(O)O` [ZOLEDRONIC ACID], for which the concentration for a half-maximal effect (EC50) in data set [1] was > 100000 nM; in data set [2] it was 79000 nM; in data set [3], 23000 nM.
The molecule `C/C(=C\CCP(=O)(OCOC(=O)C(C)(C)C)Oc1cccc2ccccc12)CO` (configuration not stated) displayed an EC50 in data set [4] of 0.79 nM.
Turning to `CCOC(=O)[C@H](C)N[P@@](=O)(CC/C=C(\C)CO)Oc1ccccc1`, the Stability result in data set [5] is given as “Stable”. Further, the EC50 in data set [1] was determined as 200 nM; in data set [2], 79 nM; in data set [3] it was 21 nM; in data set [4], 0.28 nM.
For the molecule `CCOC(=O)[C@H](C)N[P@](=O)(CC/C=C(\C)CO)Oc1ccccc1`, the Stability result in data set [5] is listed as “Stable”. Further, the EC50 in data set [1] is 460 nM; in data set [2] it was 160 nM; in data set [3], 43 nM; in data set [4], 0.43 nM.
In turn, `C/C(=C\COP(=O)(O)OP(=O)(O)O)CO` displayed an EC50 in data set [4] of 0.5 nM.
With `C/C(=C\CCP(=O)(OCOC(=O)C(C)(C)C)OCOC(=O)C(C)(C)C)CO`, the Stability result in data set [5] is on record as “Stable”.
For `CCOC(=O)[C@@H](C)N[P@](=O)(CC/C=C(\C)CO)Oc1ccccc1`, the Stability entry in data set [5] was “Stable”. Also, the EC50 in data set [1] worked out at 6000 nM; in data set [2] it was 2000 nM; in data set [3], 520 nM.
In turn, `C/C(=C\CCP(=O)(O)O)CO` returned an EC50 in data set [4] of 4000 nM.
In turn, `C/C(=C\CCP(=O)(OCOC(=O)C(C)(C)C)Oc1ccccc1)CO` (configuration not stated) had an EC50 in data set [4] of 14 nM.
Regarding `CCOC(=O)[C@@H](C)N[P@@](=O)(CC/C=C(\C)CO)Oc1ccccc1`, the Stability result in data set [5] was “Stable”. Besides, the EC50 in data set [1] was determined as 4600 nM; in data set [2], 1500 nM; in data set [3], 430 nM.
Consider `C/C(=C\CCP(=O)(O)OP(=O)(O)O)CO`, for which the EC50 in data set [1] turned out to be 7600 nM; in data set [2] it was 1200 nM; in data set [3], 280 nM.

The record behind these values is ChEMBL document CHEMBL4304812, “Synthesis and Bioactivity of the Alanyl Phosphonamidate Stereoisomers Derived from a Butyrophilin Ligand” (ACS Med Chem Lett, 2019).
